Results on 13 compounds are retold here after US4762843A, “Hetero [f] fused carbocyclic pyridines as dopaminergic agents” (Warner-Lambert Company, priority 1987, dated 1988).

Where a name gives a salt, the structure may show the parent alone. Read-outs that look alike come from different tables or passages of the source.

In one test the test system is dopamine synthesis. Put plainly: Inhibition of dopamine synthesis in rats. The settings on record: Rattus norvegicus, read-out: Percent Inhibition of Dopamine Synthesis. Type of test: in vivo. How it is done:
(§1) The compounds of formula I are valuable dopaminergic agents. […] Thus, the compounds of formula I were tested for their ability to inhibit locomotor activity in mice according to the assay described in Pharmacol. Biochem. Behav. 1978 (8) 97; for their ability to inhibit haloperidol binding in a receptor binding assay described in Mol. Pharmacol. 1976 (12) 800; and for their ability to inhibit dopamine synthesis in rats according to the protocol described in Naumyn-Schmiedeberg's Arch. Pharmacol., 1976 (296) 5. The above test methods are incorporated herein by reference.

The subject of test [1] is locomotor activity in mice. Put plainly: Inhibition of locomotor activity in mice. Type of test: in vivo. To be noted: Mus musculus, read-out: Inhibition of Locomotor Activity in Mice (ED50). How it is done:
as §1

For a further test, the target named is T1, haloperidol binding (Bos taurus, UniProt P20288).
T1 construct: from tissue
T1 sequence (P20288 whole entry): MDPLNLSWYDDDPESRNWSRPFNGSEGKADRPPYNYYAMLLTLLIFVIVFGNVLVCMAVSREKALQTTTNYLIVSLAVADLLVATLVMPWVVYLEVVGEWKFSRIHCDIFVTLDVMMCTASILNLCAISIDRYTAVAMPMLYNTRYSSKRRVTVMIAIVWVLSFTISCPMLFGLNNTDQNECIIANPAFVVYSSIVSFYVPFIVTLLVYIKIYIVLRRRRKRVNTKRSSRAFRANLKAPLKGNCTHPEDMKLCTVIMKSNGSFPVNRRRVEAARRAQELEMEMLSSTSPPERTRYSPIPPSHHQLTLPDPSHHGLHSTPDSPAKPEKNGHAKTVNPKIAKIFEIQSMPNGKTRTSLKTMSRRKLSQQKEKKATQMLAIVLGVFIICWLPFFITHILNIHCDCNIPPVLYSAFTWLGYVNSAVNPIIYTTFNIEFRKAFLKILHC
Put plainly: Inhibition of haloperidol binding in a receptor binding assay. The settings on record: read-out: Percent Inhibition Haloperidol Binding. How it is done: as §1

A word on the inhibition: it is the percentage by which the read-out fell short of the control. Usually ED50 stands for the midpoint of the dose-response relation. Regarding `CCCN1CCC=C2c3nc(N)sc3CCC21` (racemic) [Example 5, (±) 4,5,5a,6,7,8-Hexahydro-6-propylthiazolo[4,5-f]quinolin-2-amine], the inhibition at 5 mg/kg in the test on dopamine synthesis was 53%. The median effective dose (ED50) in test [1] (ip) turned out to be 5.5 mg/kg. Also, the inhibition at 1 µM at haloperidol binding worked out at 43%.

Turning to `CN1CCC=C2c3nc(N)sc3CCC21` (racemic) [Example 5a, (±) 4,5,5a,6,7,8-Hexahydro-6-methylthiazolo[4,5-f]quinolin-2-amine], the inhibition at 10 mg/kg in the test on dopamine synthesis worked out at 92%. Also, the ED50 in test [1] (ip) stood at 2.6 mg/kg. Further, the inhibition at 5 µM at haloperidol binding is 62%.

On to `CCN1CCC=C2c3nc(N)sc3CCC21` (racemic) [Example 5b, (±) 6-Ethyl-4,5,5a,6,7,8-hexahydrothiazolo[4,5-f]quinolin-2-amine], for which, in the test on dopamine synthesis, the inhibition at 1 mg/kg turned out to be 60%. In test [1] (ip), the ED50 was 0.62 mg/kg. Besides, the inhibition at 5 µM on haloperidol binding came to 68%.

As to `CCCCN1CCC=C2c3nc(N)sc3CCC21` (racemic) [Example 5c, (±) 6-Butyl-4,5,5a,6,7,8-hexahydrothiazolo[4,5-f]quinolin-2-amine, dihydrochloride, hemihydrate], the inhibition at 10 mg/kg with dopamine synthesis is 18%. The median effective dose (ED50) in test [1] (ip) worked out at 14.7 mg/kg. Further, the inhibition at 10 µM at haloperidol binding was 70%.

For `C=CCN1CCC=C2c3nc(N)sc3CCC21` (racemic) [Example 5d, (±) 4,5,5a,6,7,8-Hexahydro-6-(2-propenyl)thiazolo [4,5-f]quinolin-2-amine, dihydrochloride], the inhibition at 5 mg/kg in the test with dopamine synthesis is 100%. Moreover, the ED50 in test [1] (ip) is 0.24 mg/kg.

On to `Nc1nc2c(s1)CCC1C2=CCCN1CC1CC1` (racemic) [Example 5e, (±) 6-(Cyclopropylmethyl)-4,5,5a,6,7,8-hexahydrothiazolo[4,5-f]quinolin-2-amine, dihydrochloride], for which the 50% effective dose (ED50) in test [1] (ip) is 12 mg/kg. The inhibition at 1 µM at haloperidol binding is 62%.

Take `Nc1nc2c(s1)CCC1C2=CCCN1CCc1ccccc1` (racemic) [Example 5f, (±) 4,5,5a,6,7,8-Hexahydro-6-(2-phenylethyl)thiazolo [4,5-f]quinolin-2-amine]: the ED50 in test [1] (mice, IP) is 31.3 mg/kg. The inhibition at 5 µM at haloperidol binding (at 5 × 10^-6 M) amounted to 67%.

Regarding `Nc1nc2c(s1)CCC1C2=CCCN1Cc1ccccc1` (racemic) [Example 5g, (±) 4,5,5a,6,7,8-Hexahydro-6-(phenylmethyl)thiazolo [4,5-f]quinolin-2-amine, dihydrochloride, hydrate], in test [1] (mice, IP), the ED50 came out at 26.1 mg/kg. Also, the inhibition at 5 µM at haloperidol binding (at 5 × 10^-6 M) was found to be 61%.

With `CCCN1CCC=C2c3nc(NC(C)=O)sc3CCC21` (racemic) [Example 15a, (±) N-(4,5,5a,6,7,8-Hexahydro-6-propylthiazolo[4,5-f]quinolin-2-yl)acetamide], the median effective dose (ED50) in test [1] (mice, IP) came out at 16.3 mg/kg. Besides, the inhibition at 5 µM at haloperidol binding (at 5 × 10^-6 M) came to 23%.

Turning to `C=CCN1CCC=C2c3nc(NC(C)=O)sc3CCC21` (racemic) [Example 15b, (±) N-[4,5,5a,6,7,8-Hexahydro-6-(2-propenyl)thiazolo [4,5-f]quinolin-2-yl]acetamide], the inhibition at 5 mg/kg with dopamine synthesis (rats, at 5 mg/kg) is 82%. Further, in test [1] (mice, IP), the ED50 amounted to 3.1 mg/kg. Also, on haloperidol binding (at 1 × 10^-5), the inhibition at 10 µM was 21%.

As for `CCCN1CCC[C@H]2c3sc(N)nc3CC[C@@H]21` (racemic) [Example 17, (±) trans-4,5,5a,6,7,8,9,9a-Octahydro-6-propylthiazolo[5,4-f]quinolin-2-amine], the inhibition at 5 mg/kg with dopamine synthesis turned out to be 100%. The 50% effective dose (ED50) in test [1] (ip) is 0.7 mg/kg. In addition, the inhibition at 1 µM on haloperidol binding was found to be 37%.

Turning to `Nc1nc2c(s1)CCC1NCCC=C21` (racemic) [Example 40, (±) 4,5,5a,6,7,8-Hexahydrothiazolo[4,5-f]quinolin-2-amine, dihydrochloride], the inhibition at 10 mg/kg in the test with dopamine synthesis is 44%. Besides, the ED50 in test [1] (ip) came to 11.6 mg/kg. The inhibition at 5 µM on haloperidol binding is 77%.

Take `CCCN1CCC=C2c3nc(N)sc3CCC21` (single isomer, unassigned; (+)) [Example 16, (+) 4,5,5a,6,7,8-hexahydro-6-propylthiazolo[4,5-f]quinolin-2-amine, dihydrochloride]: the inhibition at 3 mg/kg in the test on dopamine synthesis is 100%. Moreover, in test [1] (ip), the median effective dose (ED50) was 2.5 mg/kg. For the same compound, on haloperidol binding, the inhibition at 5 µM amounted to 76%.
